Patent publication US8637525B2, “Compounds for the reduction of beta-amyloid production” (Bristol-Myers Squibb Company, priority 2009, dated 2014)
pIC50: −log10 of the molar value.

System: Aβ1-42 production
Assay: Cellular assay for inhibition of Aβ1-42 production (H4 APP751 SWE clone 8.20)
Assay type: cell-based
Conditions: 19 h, H4 APP751 SWE clone 8.20 cells, 19 h incubation; class symbols; read-out: Activity Rating (Aβ42 cellular IC50)
Summary of the method: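 Viewlux signal read-out; IC50 by curve fit. Sandwich: 565 anti-Aβ42 neoepitope (Wallac conjugate, 0.8 ng/well) + 26D6 anti-N-terminus (APC, 75 ng/well), in Tris-HCl 40 mM pH 7.4/0.2% BSA, o/n 4 °C. Cells exposed to compound 19 h, 37 °C, 5% CO2.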

| SMILES | pIC50 |
| --- | --- |
| CNc1nc(Nc2ccc(F)c(OC)c2)nc2c1CCC2c1ccccc1 (stereo not shown) [Example 222, N2-(4-fluoro-3-methoxyphenyl)-N4-methyl-7-phenyl-6,7-dihydro-5H-cyclopenta[d]pyrimidine-2,4-diamine] | < 6.00 |
| CNc1nc(Nc2ccc(C#N)cc2)nc2c1CCC2c1ccccc1 (stereo not shown) [Example 226, 4-(4-(methylamino)-7-phenyl-6,7-dihydro-5H-cyclopenta[d]pyrimidin-2-ylamino)benzonitrile] | 6.00 to 7.00 |
| CNc1nc(Nc2ccc(C#N)c3ccccc23)nc2c1CCC2c1ccccc1 (stereo not shown) [Example 229, 4-(4-(methylamino)-7-phenyl-6,7-dihydro-5H-cyclopenta[d]pyrimidin-2-ylamino)-1-naphthonitrile] | < 6.00 |
| CNc1nc(Nc2nc3cc(C#N)ccc3[nH]2)nc2c1CCC2c1ccccc1 (stereo not shown) [Example 232, 2-(4-(methylamino)-7-phenyl-6,7-dihydro-5H-cyclopenta[d]pyrimidin-2-ylamino)-1H-benzo[d]imidazole-5-carbonitrile] | < 6.00 |
| CNc1nc(Nc2ccc(S(C)(=O)=O)cc2)nc2c1CCC2c1ccccc1 (stereo not shown) [Example 235, N4-methyl-N2-(4-(methylsulfonyl)phenyl)-7-phenyl-6,7-dihydro-5H-cyclopenta[d]pyrimidine-2,4-diamine] | 6.00 to 7.00 |
| CNc1nc(Nc2ccc(OC(F)(F)F)cc2)nc2c1CCC2c1ccccc1 (stereo not shown) [Example 236, N4-methyl-7-phenyl-N2-(4-(trifluoromethoxy)phenyl)-6,7-dihydro-5H-cyclopenta[d]pyrimidine-2,4-diamine] | < 6.00 |
| CNc1nc(Nc2ccc(C3(C#N)CCCC3)cc2)nc2c1CCC2c1ccccc1 (stereo not shown) [Example 244, 1-(4-(4-(methylamino)-7-phenyl-6,7-dihydro-5H-cyclopenta[d]pyrimidin-2-ylamino)phenyl)cyclopentanecarbonitrile] | < 6.00 |
| CNc1nc(Nc2ccc3c(c2)CCNC3)nc2c1CCC2c1ccccc1 (stereo not shown) [Example 245, N4-methyl-7-phenyl-N2-(1,2,3,4-tetrahydroisoquinolin-6-yl)-6,7-dihydro-5H-cyclopenta[d]pyrimidine-2,4-diamine] | < 6.00 |
| CNc1nc(Nc2ccc3occc3c2)nc2c1CCC2c1ccccc1 (stereo not shown) [Example 250, N2-(benzofuran-5-yl)-N4-methyl-7-phenyl-6,7-dihydro-5H-cyclopenta[d]pyrimidine-2,4-diamine] | < 6.00 |
| CNc1nc(Nc2ccc3[nH]ccc3c2)nc2c1CCC2c1ccccc1 (stereo not shown) [Example 251, N2-(1H-indol-5-yl)-N4-methyl-7-phenyl-6,7-dihydro-5H-cyclopenta[d]pyrimidine-2,4-diamine] | < 6.00 |
| CNc1nc(Nc2ccc3nc(C)oc3c2)nc2c1CCC2c1ccccc1 (stereo not shown) [Example 252, N4-methyl-N2-(2-methylbenzo[d]oxazol-6-yl)-7-phenyl-6,7-dihydro-5H-cyclopenta[d]pyrimidine-2,4-diamine] | < 6.00 |
| CNc1nc(Nc2ccc(C(C)=O)cc2)nc2c1CCC2c1ccccc1 (stereo not shown) [Example 257, 1-(4-(4-(methylamino)-7-phenyl-6,7-dihydro-5H-cyclopenta[d]pyrimidin-2-ylamino)phenyl)ethanone] | 7.00 to 8.00 |
| CNc1nc(Nc2ccc(C3CC3)cc2)nc2c1CCC2c1ccc(F)cc1 (stereo not shown) [Example 258, N2-(4-cyclopropylphenyl)-7-(4-fluorophenyl)-N4-methyl-6,7-dihydro-5H-cyclopenta[d]pyrimidine-2,4-diamine] | < 6.00 |

Now from value to compound:

| pIC50 | SMILES |
| --- | --- |
| < 6.00 | CNc1nc(Nc2ccc(Br)cc2OC)nc2c1CCC2c1ccccc1 (stereo not shown) [Example 221, N2-(4-bromo-2-methoxyphenyl)-N4-methyl-7-phenyl-6,7-dihydro-5H-cyclopenta[d]pyrimidine-2,4-diamine] |
| < 6.00 | CNc1nc(Nc2ccncc2)nc2c1CCC2c1ccccc1 (stereo not shown) [Example 224, N4-methyl-7-phenyl-N2-(pyridin-4-yl)-6,7-dihydro-5H-cyclopenta[d]pyrimidine-2,4-diamine] |
| < 6.00 | CNc1nc(Nc2ccccc2C#N)nc2c1CCC2c1ccccc1 (stereo not shown) [Example 228, 2-(4-(methylamino)-7-phenyl-6,7-dihydro-5H-cyclopenta[d]pyrimidin-2-ylamino)benzonitrile] |
| 6.00 to 7.00 | CNc1nc(Nc2ccc(CC#N)cc2)nc2c1CCC2c1ccccc1 (stereo not shown) [Example 231, 2-(4-(4-(methylamino)-7-phenyl-6,7-dihydro-5H-cyclopenta[d]pyrimidin-2-ylamino)phenyl)acetonitrile] |
| < 6.00 | CNc1nc(Nc2cccc(C#N)c2)nc2c1CCC2c1ccccc1 (stereo not shown) [Example 233, 3-(4-(methylamino)-7-phenyl-6,7-dihydro-5H-cyclopenta[d]pyrimidin-2-ylamino)benzonitrile] |
| < 6.00 | CNc1nc(Nc2ccc(C(C)(C)C)cc2)nc2c1CCC2c1ccccc1 (stereo not shown) [Example 234, N2-(4-tert-butylphenyl)-N4-methyl-7-phenyl-6,7-dihydro-5H-cyclopenta[d]pyrimidine-2,4-diamine] |
| 6.00 to 7.00 | CNc1nc(Nc2ccc(C(F)(F)F)cc2)nc2c1CCC2c1ccccc1 (stereo not shown) [Example 239, N4-methyl-7-phenyl-N2-(4-(trifluoromethyl)phenyl)-6,7-dihydro-5H-cyclopenta[d]pyrimidine-2,4-diamine] |
| 6.00 to 7.00 | CNc1nc(Nc2ccc(C(=O)N(C)C)cc2)nc2c1CCC2c1ccccc1 (stereo not shown) [Example 243, N,N-dimethyl-4-(4-(methylamino)-7-phenyl-6,7-dihydro-5H-cyclopenta[d]pyrimidin-2-ylamino)benzamide] |
| 6.00 to 7.00 | CNc1nc(Nc2ccc(C3(C#N)CC3)cc2)nc2c1CCC2c1ccccc1 (stereo not shown) [Example 247, 1-(4-(4-(methylamino)-7-phenyl-6,7-dihydro-5H-cyclopenta[d]pyrimidin-2-ylamino)phenyl)cyclopropanecarbonitrile] |
| < 6.00 | CNc1nc(Nc2ccc(NC3(C#N)CC3)c(OC)c2)nc2c1CCC2c1ccccc1 (stereo not shown) [Example 248, 1-(2-methoxy-4-(4-(methylamino)-7-phenyl-6,7-dihydro-5H-cyclopenta[d]pyrimidin-2-ylamino)phenylamino)cyclopropanecarbonitrile] |
| < 6.00 | CNc1nc(Nc2ccc3[nH]c(C)cc3c2)nc2c1CCC2c1ccccc1 (stereo not shown) [Example 249, N4-methyl-N2-(2-methyl-1H-indol-5-yl)-7-phenyl-6,7-dihydro-5H-cyclopenta[d]pyrimidine-2,4-diamine] |
| < 6.00 | CNc1nc(Nc2ccc3nc(C)sc3c2)nc2c1CCC2c1ccccc1 (stereo not shown) [Example 255, N4-methyl-N2-(2-methylbenzo[d]thiazol-6-yl)-7-phenyl-6,7-dihydro-5H-cyclopenta[d]pyrimidine-2,4-diamine] |

Same assay, conditions: 19 h, H4 APP751 SWE clone 8.20 cells, 19 h incubation; read-out: Activity Rating (Aβ42 cellular IC50), numeric value

| SMILES | pIC50 |
| --- | --- |
| CNc1nc(Nc2ccc(Cl)c(OC)c2)nc2c1CCC2c1ccccc1 (stereo not shown) [Example 220, N2-(4-chloro-3-methoxyphenyl)-N4-methyl-7-phenyl-6,7-dihydro-5H-cyclopenta[d]pyrimidine-2,4-diamine] | 6.26 |
| CNc1nc(Nc2ccc(C#N)nc2)nc2c1CCC2c1ccccc1 (stereo not shown) [Example 230, 5-(4-(methylamino)-7-phenyl-6,7-dihydro-5H-cyclopenta[d]pyrimidin-2-ylamino)picolinonitrile] | 7.38 |
| CNc1nc(Nc2ccc(C#N)c(C#N)c2)nc2c1CCC2c1ccccc1 (stereo not shown) [Example 237, 4-(4-(methylamino)-7-phenyl-6,7-dihydro-5H-cyclopenta[d]pyrimidin-2-ylamino)phthalonitrile] | 7.54 |
| CNc1nc(Nc2ccc(C#N)c(OC(F)(F)F)c2)nc2c1CCC2c1ccccc1 (stereo not shown) [Example 246, 4-(4-(methylamino)-7-phenyl-6,7-dihydro-5H-cyclopenta[d]pyrimidin-2-ylamino)-2-(trifluoromethoxy)benzonitrile] | 7.51 |
| CNc1nc(Nc2ccc3c(ccn3C)c2)nc2c1CCC2c1ccccc1 (stereo not shown) [Example 254, N4-methyl-N2-(1-methyl-1H-indol-5-yl)-7-phenyl-6,7-dihydro-5H-cyclopenta[d]pyrimidine-2,4-diamine] | 6.00 |

More lines, now with the values ahead:

| pIC50 | SMILES |
| --- | --- |
| 4.96 | CNc1nc(Nc2cncnc2)nc2c1CCC2c1ccccc1 (stereo not shown) [Example 223, N4-methyl-7-phenyl-N2-(pyrimidin-5-yl)-6,7-dihydro-5H-cyclopenta[d]pyrimidine-2,4-diamine] |
| 7.74 | CNc1nc(Nc2ccc(C#N)cc2)nc2c1CCC2c1ccccc1 (stereo not shown) [Example 225, 4-(4-(methylamino)-7-phenyl-6,7-dihydro-5H-cyclopenta[d]pyrimidin-2-ylamino)benzonitrile] |
| 7.17 | CNc1nc(Nc2ccc(Br)c(C#N)c2)nc2c1CCC2c1ccccc1 (stereo not shown) [Example 242, 2-bromo-5-(4-(methylamino)-7-phenyl-6,7-dihydro-5H-cyclopenta[d]pyrimidin-2-ylamino)benzonitrile] |
| 5.23 | CNc1nc(Nc2ccc3nc[nH]c3c2)nc2c1CCC2c1ccccc1 (stereo not shown) [Example 253, N2-(1H-benzo[d]imidazol-6-yl)-N4-methyl-7-phenyl-6,7-dihydro-5H-cyclopenta[d]pyrimidine-2,4-diamine] |
| 7.01 | CNc1nc(Nc2ccc(Br)c(OC)c2)nc2c1CCC2c1ccccc1 (stereo not shown) [Example 256, N2-(4-bromo-3-methoxyphenyl)-N4-methyl-7-phenyl-6,7-dihydro-5H-cyclopenta[d]pyrimidine-2,4-diamine] |

Same assay, conditions: H4 APP751 SWE clone 8.20 cells, 19 h incubation; class symbols; read-out: Activity Rating (Aβ42 cellular IC50)

| SMILES | pIC50 |
| --- | --- |
| CNc1nc(Nc2ccc(C#N)c(C(F)(F)F)c2)nc2c1CCC2c1ccccc1 (stereo not shown) [Example 238, 4-(4-(methylamino)-7-phenyl-6,7-dihydro-5H-cyclopenta[d]pyrimidin-2-ylamino)-2-(trifluoromethyl)benzonitrile] | 6.00 to 7.00 |

Same assay, conditions: H4 APP751 SWE clone 8.20 cells, 19 h incubation; read-out: Activity Rating (Aβ42 cellular IC50), numeric value

| pIC50 | SMILES |
| --- | --- |
| 7.92 | CNc1nc(Nc2ccc(C#N)cc2)nc2c1CCC2c1ccccc1 (stereo not shown) [Example 227, 4-(4-(methylamino)-7-phenyl-6,7-dihydro-5H-cyclopenta[d]pyrimidin-2-ylamino)benzonitrile] |
